For 88 compounds, XC50 results are on record in ChEMBL document CHEMBL1157539, “Thousands of chemical starting points for antimalarial lead identification” (Nature, 2010).

Molecules are shown by their SMILES.

This experiment deals with Plasmodium falciparum. Nature of the experiment: GSK_TCMDC: Inhibition of Plasmodium falciparum 3D7 in whole erythrocytes, using parasite LDH activity as an index of growth. The experiment is classed as functional, organism-based. To be noted: Plasmodium falciparum, 3D7.
`Nc1nc(N)c2c(Sc3ccc(F)cc3)cccc2n1` registered an XC50 of 1070 nM. The value for `Cc1cc2c3c(N)nc(N)nc3ccc2n1C(C)C` was 8.52 nM; that for `COc1cc(-c2ccccc2)ccc1C(=O)Nc1ccc2c(c1)N(C)CCC2` was 325 nM. The value for `O=C(/C=C/c1ccc(Br)cc1)NCCCCCN1CCC(c2c[nH]c3ccccc23)CC1` was 724 nM; that for `CCc1cc2c3c(N)nc(N)nc3ccc2n1C(CC)CC` was 63.7 nM. In turn, `COc1ccc2nccc([C@@H](O)CN3CCC(NC(=O)C(c4cc5ccccc5o4)N4CCN(c5ccc(F)cc5)CC4)CC3)c2c1` (stereo partly drawn) had an XC50 of 197 nM. Consider `COc1ccc(CNCc2ccc(-c3ccc(-c4nc5cc(C(F)(F)F)ccc5[nH]4)s3)cc2)cc1`, for which the XC50 was determined as 174 nM. The same measure for `Oc1ccc(CN2CCC(NCc3cccc4ccccc34)CC2)cc1`: 1200 nM; for `Nc1c(I)cc(C(=O)Nc2ccc3nc4c(c(N)c3c2)CCCC4)cc1I`: 143 nM; for `O=C(NCc1ccccc1)OC1CNCCC1c1ccc(C(O)Cc2ccccc2)cc1` (stereo not drawn): 576 nM. The same measure for `COc1ccc(C2CC(c3ccccc3)=NN2C(=O)c2ccc(Br)o2)cc1` (stereo not drawn): 323 nM; for `CO/C(=C\C=C\c1cc2cc(Cl)c(Cl)cc2[nH]1)C(=O)NCCCN1CCN(c2cccc(O)c2)CC1`: 579 nM. The same measure for `O=S(=O)(NCCN1CCCC1)c1ccc(-c2cccc(CNCc3ccc(F)cc3)c2)cc1F`: 787 nM; for `N=C1N=C(N)NCN1OCc1ccc(Cl)c(Cl)c1`: 194 nM; for `CC[C@H]1CN2CC[C@H]1C[C@H]2[C@H](O)c1cc(-c2ccc(Cl)c(Cl)c2)nc2ccc(OC)cc12`: 115 nM. For the compound `Cc1nc(-c2cccc(NC(C)C(=O)Nc3cc(C(F)(F)F)ccc3N3CCOCC3)c2)cs1` (stereo not drawn), the XC50 was 241 nM. The value for `COc1cc(C)cc(CN2CCC(Cc3ccccc3)CC2)c1O` was 1020 nM; that for `CCCC1N=C(N)N=C(N)N1c1cccc([N+](=O)[O-])c1` (stereo not drawn) was 760 nM; that for `Cn1cc(CN2CCCC(COC(c3ccccc3)c3ccccc3)C2)cn1` (stereo not drawn) was 775 nM. The same measure for `O=C(NCCc1ccc(Cl)c(Cl)c1)[C@@H]1CCCN1C(=O)c1ccc(O)c(-c2cccc(C(F)(F)F)c2)c1`: 825 nM; for `O=c1cc(NCCCNCc2cc(Cl)c(Cl)cc2Cl)[nH]c2ccccc12`: 966 nM. `CN1CCC(NC(=O)c2cccc(Nc3cc(Nc4cccc(Br)c4)ncn3)c2)CC1` registered an XC50 of 1010 nM.

For the compound `Cc1ccc2[nH]c3c(NCCCN(C)C)ncnc3c2c1`, the XC50 was 650 nM. The value for `COc1ccccc1-n1ccnc1SCC(=O)Nc1cccc(C(F)(F)F)c1` was 160 nM; that for `COc1ccc(CCN(Cc2cccs2)C(=O)c2cc3sccc3n2C)cc1OC` was 349 nM. The value for `NCCCNc1nc(Nc2cccc(C(N)=O)c2)c2c(=O)[nH]ccc2n1` was 594 nM. For `O=C(Nc1cccc(CN2CCCN(CC3CCCCC3)CC2)c1)c1cc2ccccc2s1`, the XC50 was determined as 814 nM. The value for `OCCN1CCN(C(=S)NC2CCCCC2)CC1` was 1100 nM; that for `O=C(/C=C/c1ccc(Cl)cc1)NCCCCCN1CCC(C(=O)Nc2ccc(Cl)c(Cl)c2)CC1` was 766 nM; that for `Nc1nc(N)c2c(ccc3c2ccn3CCCF)n1` was 149 nM.

In turn, `N#Cc1cc([N+](=O)[O-])ccc1-n1nc(C(N)=O)n(Cc2cccc(F)c2)c1=S` displayed an XC50 of 721 nM. The same measure for `Cc1nn(-c2cccc(C(F)(F)F)c2)c2sc(C(=O)NC3CCN(C(C)C)CC3)cc12`: 898 nM; for `COc1cccc(C2CCN(CCN3CCC(NC(=O)c4ccc(-c5ccc(C(F)(F)F)cc5)cc4)CC3)CC2)c1`: 203 nM; for `c1ccc(CNc2nc(NCCc3c[nH]cn3)nc(N3CCCC4CCCCC43)n2)cc1` (stereo not drawn): 834 nM. `CCCCCN1CCCN(Cc2cccc(NC(=O)c3ccc4ccccc4c3)c2)CC1` gave an XC50 of 1220 nM.

On to `CCc1ccccc1NC(=O)CN1CCN(c2ncnc3scc(-c4ccc(F)cc4)c23)CC1`, for which the XC50 was found to be 702 nM. The value for `COc1cc(NC(=O)c2ccc(-c3ccccc3)cc2)ccc1OCCCN1CCC(c2ccccc2)CC1` was 752 nM.

`CC(Cc1ccc(S(=O)(=O)N(C(C)C)C(C)C)cc1)NCC(O)c1cccc(C(F)(F)F)c1` (stereo not drawn) showed an XC50 of 685 nM. As for `O=C(NCCN1CCCC1)N1CCCN(c2ncnc3cc(-c4ccc(F)cc4)sc23)CC1`, the XC50 turned out to be 902 nM. The value for `CCC(CC)C(CC(=O)NC(C)(C)CCc1ccccc1OC)Nc1ccc(C#N)c2ccccc12` (stereo not drawn) was 796 nM; that for `O=C(/C=C/c1c(Cl)cccc1Cl)NC1CCC(CN2CCC(Cc3cc4ccccc4[nH]3)CC2)CC1` (stereo not drawn) was 975 nM; that for `CN(C)CC(=O)N(Cc1ccc(Cl)c(Cl)c1)Cc1csc(-c2ccc(CNCc3ccccc3)cc2)n1` was 1050 nM.

In turn, `NCCCN(Cc1ccc(Cl)c(Cl)c1)C(=O)Nc1ccc(Cl)c(Cl)c1` gave an XC50 of 898 nM. The same measure for `CC(=NNC(S)=NCc1ccco1)c1ccccn1`: 254 nM; for `Cc1ccc(C(=O)N2CCN(Cc3nccs3)CC2)cc1`: 1010 nM; for `COc1ccc(CN(C)CCCc2ccc(NC(=O)c3cccc4c(=O)c5cccc(F)c5[nH]c34)cc2)cc1OC`: 937 nM. The value for `COc1ccc2c(=O)ccn(CCN3CCC(NCc4ccc5c(n4)NC(=O)CS5)CC3)c2c1` was 233 nM; that for `CNC(=N)c1ccc(NC(=O)c2ccc(C(=O)Nc3ccc(C(=N)NC)cc3)cc2)cc1` was 47.1 nM; that for `CN(c1cc(NC(=O)c2ccc(F)cc2)ccn1)C1CCN(Cc2cccc(C#N)c2)CC1` was 831 nM. The same measure for `O=C(Nc1ccc(Oc2ccccc2)cc1)N[C@H]1CCN(Cc2ccc(OCCCN3CCCCC3)cc2)C1`: 179 nM.

The compound `CCNC[C@H]1CCCN1CCOc1ccc(-n2cnc3cc(-c4ccc(Cl)cc4)sc3c2=O)cc1OC` gave an XC50 of 808 nM. The value for `CC(C)(C)NC(=O)C(c1ccc(F)cc1)N(C(=O)c1ccc(CN2CCOCC2)o1)c1ccc(C2CCCCC2)cc1` (stereo not drawn) was 925 nM. The value for `CCOc1ccc(NC(=O)c2ccc(NCCCN3CC(C)CC(C)C3)c([N+](=O)[O-])c2)cc1` (stereo not drawn) was 705 nM.

`O=C(NCCCCN1CCC(c2cccc3ccccc23)CC1)c1ccc(NC(=O)c2ccc(Cl)cc2)cc1` yielded an XC50 of 784 nM. The same measure for `CC(C)(C)c1ccccc1OC(=O)c1ccccc1`: 740 nM; for `Cn1cncc1-c1ccc2ncnc(Nc3ccc4c(cnn4Cc4ccccc4)c3)c2c1`: 180 nM.

Turning to `CCC/C=C/c1c(CNCCCNc2cc(=O)c3ccccc3[nH]2)sc(CC)c1Br`, the XC50 was determined as 889 nM. `Cc1ccccc1C1=CCN(CCCN2c3ccccc3Sc3ccc(Cl)cc32)CC1` registered an XC50 of 871 nM. `O=C(Nc1cccc(C(F)(F)F)c1)c1cccc(S(=O)(=O)NCC2CCCN(CC3CCCCC3)C2)c1` (stereo not drawn) returned an XC50 of 880 nM.

`COc1ccc([N+](=O)[O-])cc1N(Cc1ccccc1-c1ccccc1)S(=O)(=O)c1ccc(C(F)(F)F)cc1[N+](=O)[O-]` registered an XC50 of 1050 nM. The same measure for `CC(C)C[C@H](NC(=O)c1ccc(F)cc1)C(=O)N[C@H](/C=N/NC(=O)c1ccccc1)CCc1ccccc1`: 812 nM.

In the case of `CC(C)(c1ccccc1)c1ccc(O)c(CN2CCOCC2)c1`, the XC50 came to 984 nM.

`Oc1c(C(Nc2nc3ccccc3s2)c2ccc(OC(F)F)cc2)ccc2cccnc12` (stereo not drawn) showed an XC50 of 571 nM.

Turning to `COc1cccc2cc(C(=O)N[C@@H](CC(C)C)C(=O)N[C@H](/C=N/NC(=O)OC(C)(C)C)CC(=O)OC(C)(C)C)oc12`, the XC50 came to 403 nM.

Consider `CN(C)CCOc1cc(NC(=O)Nc2cccc([N+](=O)[O-])c2)ccc1I`, for which the XC50 was 743 nM. The value for `C=CCn1c(SCC(=O)Nc2cc(Cl)ccc2Cl)nc2sc(C)cc2c1=O` was 71.6 nM; that for `N#Cc1ccc(N[C@@H](CC2CCCCC2)C(=O)NCc2cc(F)c(F)cc2F)c2ccccc12` was 946 nM.

Turning to `CC(C)CCNCc1ccc(OCc2cccc(COc3ccc(CNCCC(C)C)cc3I)c2)c(I)c1`, the XC50 was found to be 453 nM. For the compound `CCc1ccnc2c(N3CCCC3=O)cc(C(=O)N[C@@H](Cc3ccccc3)[C@H](O)CNC3CCOCC3)cc12`, the XC50 came to 381 nM.

Turning to `N#Cc1ccc(N2CCN(Cc3ccc(-c4ccc(-c5nc6cc(F)ccc6[nH]5)s4)cc3)CC2)nc1`, the XC50 stood at 854 nM.

As for `O=C(NC1CCN(Cc2ccccc2)CC1)c1ccc(-c2nc3cc(Cl)c(Cl)cc3[nH]2)s1`, the XC50 was 308 nM. In the case of `CCC(=O)NC(c1ccco1)c1cc(Cl)c2cccnc2c1O` (stereo not drawn), the XC50 was determined as 875 nM. The same measure for `COc1ccc(-c2ccc(CNC(=O)c3ccc(C#N)cc3)c(F)c2)cc1CN1CCCN(C)CC1`: 1140 nM; for `CCCc1cc(NCC)nc(Nc2ccc(C)cc2)n1`: 894 nM; for `CO/C(=C\C=C\c1cc2cc(Cl)c(Cl)cc2[nH]1)C(=O)NCCCN1CCCC[C@@H]1C`: 755 nM. In turn, `O=C1Nc2cccc3c2C1(CCCCN1CC=C(c2c[nH]c4ncccc24)CC1)CCC3` (stereo not drawn) registered an XC50 of 395 nM. The same measure for `N#Cc1ccc(N(CCOc2ccc3c(c2)CCC(=O)N3)Cc2ccccc2C(F)(F)F)cc1C(F)(F)F`: 763 nM.

For `CSc1ccccc1NC(=S)NC1CCN(CCCCCNC(=O)/C=C/c2ccc(Cl)c(Cl)c2)CC1`, the XC50 was determined as 778 nM. The value for `C=CCC(C)n1ncc2c3c(N)nc(N)nc3ccc21` (stereo not drawn) was 50 nM; that for `Cc1cccc(-c2nn(-c3ccccc3)c3[nH]c(=O)c(CNC4CCCC4)cc23)c1` was 759 nM; that for `CC(C)c1ncc(-c2ccncc2)c(C2CCC(CNC(=O)c3cccnc3)CC2)n1` (stereo not drawn) was 776 nM. `O=C(c1cccc(-c2noc(C(F)(F)F)n2)c1)N1CCN(c2nsc3ccccc23)CC1` registered an XC50 of 145 nM.

With `CCCNCc1ccc(-c2ccc(CNC3Cc4ccccc4C3)cc2)nc1`, the XC50 was found to be 848 nM. In the case of `Nc1ncc(-c2ccsc2)c2ccc(-c3cc(NCc4ccccc4)ncn3)cc12`, the XC50 turned out to be 861 nM.

The compound `COc1cc2nc(N3CCC(c4ccccc4)CC3)nc(NCc3ccc(=O)[nH]c3)c2cc1OC` displayed an XC50 of 755 nM. As to `CC(CN1CCN(C)CC1)C(=O)Nc1cccc(-c2ccc(-c3nc4ccccc4[nH]3)s2)c1` (stereo not drawn), the XC50 amounted to 632 nM. As for `O=C(C=Cc1cccc(F)c1)NC1CCC(CCN2CCc3ccc(-c4cnccn4)cc3CC2)CC1` (stereo not drawn), the XC50 turned out to be 454 nM. The value for `CCCC(=O)c1cnc2cc(O)ccc2c1Nc1ccccc1C` was 651 nM.
